Laboratory results from patent US20150125889A1, “IN VITRO DETECTION OF MICROORGANISMS WITH AZOREDUCTASE ACTIVITY” (BIOMÉRIEUX, priority 2012, published 2015).

Experiments:
Assay in all cases: Reduction of azo substrates over 24 hours at 35° C., microtitration plate (Example 1)
Assay type in all cases: cell-based
[1] = system: Acinetobacter baumanii; set-up: key to RED (substrate reduced or not): RED indicates whether the substrate is reduced (Y) or not (N); RED indicates whether the substrate is reduced (Y) or not (N); key to Decol (substrate decolourized, decrease in absorbance) / Fluo (fluorescence multiplied by 2 relative to substrate-free control) / Co (growth, absorbance at 660 nm): The symbol “+” means good growth/decolourization/significant increase in fluorescence; The symbol “+/−” means difficult growth; The symbol “−” means that there is no growth/decolourization/significant increase in fluorescence; conditions: A. baumannii, substrate 35 mg/l
Procedure: (§1) Reduction of the “azo” function of the substrates listed in Table I by the species listed in Table II, each species being represented by a strain, is tested in a microtitration plate.
(§2) The reaction medium consists of: • Trypcase soya broth • Substrate 35 mg/l • 0.5 MacFarland inoculum
(§3) The reduction of the substrate and the growth of the microorganisms are monitored using an Infinite® M200 Tecan microplate reader at 35° C. over 24 hours.
(§4) The growth is monitored by the absorbance at 660 nm and the reduction of the substrates by absorbance and fluorescence at the specific wavelengths indicated in Table III.
(§5) The substrate is considered as reduced by the microorganisms when the substrate is decolourized (monitored by the decrease in absorbance) (Decol) and/or when the fluorescence of the substrate is multiplied by 2 relative to the base fluorescence of a substrate-free control (Fluo). The growth is indicated by Co. The symbol “+” means good growth/decolourization/significant increase in fluorescence. The symbol “+/−” means difficult growth. The symbol “−” means that there is no growth/decolourization/significant increase in fluorescence. RED indicates whether the substrate is reduced (Y) or not (N).

[2] = system: Enterococcus faecalis; set-up: key to RED (substrate reduced or not): RED indicates whether the substrate is reduced (Y) or not (N); RED indicates whether the substrate is reduced (Y) or not (N); key to Decol (substrate decolourized, decrease in absorbance) / Fluo (fluorescence multiplied by 2 relative to substrate-free control) / Co (growth, absorbance at 660 nm): The symbol “+” means good growth/decolourization/significant increase in fluorescence; The symbol “+/−” means difficult growth; The symbol “−” means that there is no growth/decolourization/significant increase in fluorescence; conditions: E. faecalis, substrate 35 mg/l
Procedure: as §1, §2, §3, §4, §5

[3] = system: Staphylococcus epidermidis; set-up: key to RED (substrate reduced or not): RED indicates whether the substrate is reduced (Y) or not (N); RED indicates whether the substrate is reduced (Y) or not (N); key to Co (growth, absorbance at 660 nm) / Decol (substrate decolourized, decrease in absorbance) / Fluo (fluorescence multiplied by 2 relative to substrate-free control): The symbol “+” means good growth/decolourization/significant increase in fluorescence; The symbol “+/−” means difficult growth; The symbol “−” means that there is no growth/decolourization/significant increase in fluorescence; conditions: S. epidermidis, substrate 35 mg/l
Procedure: as §1, §2, §3, §4, §5

[4] = system: Kocuria rosea; set-up: key to RED (substrate reduced or not): RED indicates whether the substrate is reduced (Y) or not (N); RED indicates whether the substrate is reduced (Y) or not (N); key to Co (growth, absorbance at 660 nm) / Decol (substrate decolourized, decrease in absorbance) / Fluo (fluorescence multiplied by 2 relative to substrate-free control): The symbol “+” means good growth/decolourization/significant increase in fluorescence; The symbol “+/−” means difficult growth; The symbol “−” means that there is no growth/decolourization/significant increase in fluorescence; conditions: K. rosea, substrate 35 mg/l
Procedure: as §1, §2, §3, §4, §5

[5] = system: Geotrichum candidum; set-up: key to RED (substrate reduced or not): RED indicates whether the substrate is reduced (Y) or not (N); RED indicates whether the substrate is reduced (Y) or not (N); key to Co (growth, absorbance at 660 nm) / Decol (substrate decolourized, decrease in absorbance) / Fluo (fluorescence multiplied by 2 relative to substrate-free control): The symbol “+” means good growth/decolourization/significant increase in fluorescence; The symbol “+/−” means difficult growth; The symbol “−” means that there is no growth/decolourization/significant increase in fluorescence; conditions: G. candidum, substrate 35 mg/l
Procedure: as §1, §2, §3, §4, §5

[6] = system: Staphylococcus aureus; set-up: key to RED (substrate reduced or not): RED indicates whether the substrate is reduced (Y) or not (N); RED indicates whether the substrate is reduced (Y) or not (N); key to Co (growth, absorbance at 660 nm) / Decol (substrate decolourized, decrease in absorbance) / Fluo (fluorescence multiplied by 2 relative to substrate-free control): The symbol “+” means good growth/decolourization/significant increase in fluorescence; The symbol “+/−” means difficult growth; The symbol “−” means that there is no growth/decolourization/significant increase in fluorescence; conditions: S. aureus, substrate 35 mg/l
Procedure: as §1, §2, §3, §4, §5

[7] = system: Escherichia coli; set-up: key to RED (substrate reduced or not): RED indicates whether the substrate is reduced (Y) or not (N); RED indicates whether the substrate is reduced (Y) or not (N); key to Co (growth, absorbance at 660 nm) / Decol (substrate decolourized, decrease in absorbance) / Fluo (fluorescence multiplied by 2 relative to substrate-free control): The symbol “+” means good growth/decolourization/significant increase in fluorescence; The symbol “+/−” means difficult growth; The symbol “−” means that there is no growth/decolourization/significant increase in fluorescence; conditions: E. coli, substrate 35 mg/l
Procedure: as §1, §2, §3, §4, §5

[8] = system: Cronobacter muytjensii; set-up: key to RED (substrate reduced or not): RED indicates whether the substrate is reduced (Y) or not (N); RED indicates whether the substrate is reduced (Y) or not (N); key to Co (growth, absorbance at 660 nm) / Decol (substrate decolourized, decrease in absorbance) / Fluo (fluorescence multiplied by 2 relative to substrate-free control): The symbol “+” means good growth/decolourization/significant increase in fluorescence; The symbol “+/−” means difficult growth; The symbol “−” means that there is no growth/decolourization/significant increase in fluorescence; conditions: E. muytjensii, substrate 35 mg/l
Procedure: as §1, §2, §3, §4, §5

[9] = system: Candida albicans; set-up: key to RED (substrate reduced or not): RED indicates whether the substrate is reduced (Y) or not (N); RED indicates whether the substrate is reduced (Y) or not (N); key to Co (growth, absorbance at 660 nm) / Decol (substrate decolourized, decrease in absorbance) / Fluo (fluorescence multiplied by 2 relative to substrate-free control): The symbol “+” means good growth/decolourization/significant increase in fluorescence; The symbol “+/−” means difficult growth; The symbol “−” means that there is no growth/decolourization/significant increase in fluorescence; conditions: substrate 35 mg/l
Procedure: as §1, §2, §3, §4, §5

[10] = system: Pseudomonas aeruginosa; set-up: key to RED (substrate reduced or not): RED indicates whether the substrate is reduced (Y) or not (N); RED indicates whether the substrate is reduced (Y) or not (N); key to Co (growth, absorbance at 660 nm) / Decol (substrate decolourized, decrease in absorbance) / Fluo (fluorescence multiplied by 2 relative to substrate-free control): The symbol “+” means good growth/decolourization/significant increase in fluorescence; The symbol “+/−” means difficult growth; The symbol “−” means that there is no growth/decolourization/significant increase in fluorescence; conditions: P. aeruginosa, substrate 35 mg/l
Procedure: as §1, §2, §3, §4, §5

SMILES	Co (growth, absorbance at 660 nm) [1]	Decol (substrate decolourized, decrease in absorbance) [1]	Fluo (fluorescence multiplied by 2 relative to substrate-free control) [1]	RED (substrate reduced or not) [1]	Co (growth, absorbance at 660 nm) [2]	Decol (substrate decolourized, decrease in absorbance) [2]	Fluo (fluorescence multiplied by 2 relative to substrate-free control) [2]	RED (substrate reduced or not) [2]	Co (growth, absorbance at 660 nm) [3]	Decol (substrate decolourized, decrease in absorbance) [3]	Fluo (fluorescence multiplied by 2 relative to substrate-free control) [3]	RED (substrate reduced or not) [3]	Co (growth, absorbance at 660 nm) [4]	Decol (substrate decolourized, decrease in absorbance) [4]	Fluo (fluorescence multiplied by 2 relative to substrate-free control) [4]	Co (growth, absorbance at 660 nm) [5]	Decol (substrate decolourized, decrease in absorbance) [5]	Fluo (fluorescence multiplied by 2 relative to substrate-free control) [5]	RED (substrate reduced or not) [5]	Co (growth, absorbance at 660 nm) [6]	also measured
Oc1ccc2ccccc2c1/N=N/c1ccc(/C=C/c2ccnc3ccccc23)cc1 [BF38, 4″-Quinoline-4′-styryl-azo-2-Hydroxynaphthol]	+	−	−	N	+	+	−	Y	+	+	−	Y	−	−	−	+	−	−	N	+	Decol (substrate decolourized, decrease in absorbance) [6]: +; Fluo (fluorescence multiplied by 2 relative to substrate-free control) [6]: −; RED (substrate reduced or not) [6]: Y; Co (growth, absorbance at 660 nm) [7]: +; Decol (substrate decolourized, decrease in absorbance) [7]: +; Fluo (fluorescence multiplied by 2 relative to substrate-free control) [7]: −; RED (substrate reduced or not) [7]: Y; Co (growth, absorbance at 660 nm) [8]: +; Decol (substrate decolourized, decrease in absorbance) [8]: +; Fluo (fluorescence multiplied by 2 relative to substrate-free control) [8]: −; RED (substrate reduced or not) [8]: Y; Co (growth, absorbance at 660 nm) [9]: +; Decol (substrate decolourized, decrease in absorbance) [9]: −; Fluo (fluorescence multiplied by 2 relative to substrate-free control) [9]: −; RED (substrate reduced or not) [9]: N; Co (growth, absorbance at 660 nm) [10]: +; Decol (substrate decolourized, decrease in absorbance) [10]: +; Fluo (fluorescence multiplied by 2 relative to substrate-free control) [10]: −; RED (substrate reduced or not) [10]: Y
O=S(=O)([O-])c1ccc2c(N=Nc3cccc4ccccc34)c(O)c(S(=O)(=O)[O-])cc2c1.[Na+].[Na+] [Bordeaux B]	+	−	−	N	+	+	+	Y	+	−	−	N	−	−	−	+/−	−	−	N	+	Decol (substrate decolourized, decrease in absorbance) [6]: −; Fluo (fluorescence multiplied by 2 relative to substrate-free control) [6]: −; RED (substrate reduced or not) [6]: N; Co (growth, absorbance at 660 nm) [7]: +; Decol (substrate decolourized, decrease in absorbance) [7]: −; Fluo (fluorescence multiplied by 2 relative to substrate-free control) [7]: −; RED (substrate reduced or not) [7]: N; Co (growth, absorbance at 660 nm) [8]: +; Decol (substrate decolourized, decrease in absorbance) [8]: −; Fluo (fluorescence multiplied by 2 relative to substrate-free control) [8]: −; RED (substrate reduced or not) [8]: N; Co (growth, absorbance at 660 nm) [9]: +; Decol (substrate decolourized, decrease in absorbance) [9]: −; Fluo (fluorescence multiplied by 2 relative to substrate-free control) [9]: −; RED (substrate reduced or not) [9]: N; Co (growth, absorbance at 660 nm) [10]: +; Decol (substrate decolourized, decrease in absorbance) [10]: −; Fluo (fluorescence multiplied by 2 relative to substrate-free control) [10]: −; RED (substrate reduced or not) [10]: N
